Test results reported in patent US10988523B2, “Modified lipidated Relaxin B chain peptides and their therapeutic use” (Sanofi, priority 2018, dated 2021).
*1 amine or outer side, *2 acyl side, *3 side chain or, on linkers, in order; H or OH if unused. Where a SMILES comes first, the peptide text is derived from it. Side-chain parts run from the residue outwards. [ ]: non-standard residue; d: D form. The star is where a group is joined. X15 = CCCCCCCCCCCCCCCCCC(=O)N[C@@H](CCC(=O)N[C@@H](CCC(=O)N[C@@H](CCC(=O)NCCCOCCOCCOCCCNC(=O)COCC(=O)NCCCOCCOCCOCCCNC(=O)COCC(=O)NCCCOCCOCCOCCCNC(=O)COCC(=O)*)C(=O)O)C(=O)O)C(=O)O; X16 = CCCCCCCCCCCCCCCCCC(=O)N[C@@H](CCC(=O)N[C@@H](CCC(=O)N[C@@H](CCC(=O)NCCCOCCOCCOCCCNC(=O)COCC(=O)*)C(=O)O)C(=O)O)C(=O)O; PEG12 = NCCOCCOCCOCCOCCOCCOCCOCCOCCOCCOCCOCCOCCC(=O)O; γGlu = O=C(O)[C@H](CCC(=O)[*:2])N[*:1]; 1Nal = N[C@@H](Cc1cccc2ccccc12)C(=O)O; Stearoyl = CCCCCCCCCCCCCCCCCC(=O)*; Nle = CCCC[C@H](N)C(=O)O; AEEA = NCCOCCOCC(=O)O; Aib = CC(C)(N)C(=O)O

Molecular target: T1, RXFP1 (Homo sapiens, UniProt Q9HBX9)
T1 construct: OVCAR5 cells expressing endogenous RXFP1; endogenous in cells; host or cells: OVCAR5 cells
T1 sequence (Q9HBX9 1-757): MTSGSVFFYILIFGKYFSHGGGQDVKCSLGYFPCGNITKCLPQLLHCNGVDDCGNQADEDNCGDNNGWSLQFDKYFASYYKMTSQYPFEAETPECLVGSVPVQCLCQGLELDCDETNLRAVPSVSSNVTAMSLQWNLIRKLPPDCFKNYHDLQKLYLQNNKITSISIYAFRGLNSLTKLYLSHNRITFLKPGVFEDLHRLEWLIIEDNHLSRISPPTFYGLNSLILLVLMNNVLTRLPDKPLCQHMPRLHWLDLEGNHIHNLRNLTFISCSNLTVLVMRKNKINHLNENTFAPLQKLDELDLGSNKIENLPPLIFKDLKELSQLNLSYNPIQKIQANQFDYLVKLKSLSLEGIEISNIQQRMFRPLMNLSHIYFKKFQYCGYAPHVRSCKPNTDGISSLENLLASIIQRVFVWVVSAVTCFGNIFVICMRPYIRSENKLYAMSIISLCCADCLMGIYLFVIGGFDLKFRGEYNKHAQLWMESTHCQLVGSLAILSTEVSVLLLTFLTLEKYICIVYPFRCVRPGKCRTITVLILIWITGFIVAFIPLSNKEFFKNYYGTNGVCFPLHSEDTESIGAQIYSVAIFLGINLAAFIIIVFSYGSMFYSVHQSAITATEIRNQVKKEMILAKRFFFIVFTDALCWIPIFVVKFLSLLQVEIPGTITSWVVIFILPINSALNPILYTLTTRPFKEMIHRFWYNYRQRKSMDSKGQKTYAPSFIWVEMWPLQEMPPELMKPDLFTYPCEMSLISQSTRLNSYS
Assay: OVCAR5 cAMP assay (HTRF), RXFP1 agonist activity
Format: cell-based
Conditions: for Emax: OVCAR-5, maximal cAMP relative to H2-relaxin maximum (100%), read-out: EMax, OVCAR 5 cells (cAMP); for EC50: OVCAR5 cells, cAMP HTRF, read-out: EC50 (nM), OVCAR 5 cells (cAMP)
Outline: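 OVCAR5 cells (endogenous RXFP1) pretreated 40 min at 37° C with 1 mM IBMX, then exposed to peptides in serum-free medium for 30 min at 37° C. Lysate cAMP read by HTRF; EC50 from variable-slope sigmoidal fit; Emax as % of H2-relaxin maximal cAMP in same run.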

Structure (SMILES) | Emax [%] | EC50 [nM]
CCCCCCCCCCCCCCCCCC(=O)N[C@@H](CCC(=O)N[C@@H](CCC(=O)N[C@@H](CCC(=O)NCCCOCCOCCOCCCNC(=O)COCC(=O)NCCCC[C@H](NC(=O)[C@H](CCCCNC(C)=O)NC(=O)[C@H](CCCCN)NC(=O)[C@H](CCCNC(=N)N)NC(=O)C(C)(C)NC(=O)[C@H](CO)NC(=O)[C@H](Cc1c[nH]c2ccccc12)NC(=O)[C@@H](NC(=O)[C@H](CO)NC(=O)[C@H](CCCC)NC(=O)CNC(=O)[C@H](CCC(=O)O)NC(=O)C(C)(C)NC(=O)C(C)(C)NC(=O)[C@@H](NC(=O)[C@H](CCCCNC(C)=O)NC(=O)[C@H](C)NC(=O)[C@H](CCCNC(=N)N)NC(=O)[C@@H](NC(=O)[C@H](CCCCN)NC(=O)[C@H](CCC(=O)O)NC(=O)[C@H](CCCNC(=N)N)NC(=O)CNC(=O)[C@H](CCC(=O)O)NC(=O)[C@H](CC(C)C)NC(C)=O)C(C)C)[C@@H](C)CC)[C@@H](C)O)C(N)=O)C(=O)O)C(=O)O)C(=O)O [compound 94] (Ac-LEGREKVRAK(Ac)I[Aib][Aib]EG[Nle]STWS[Aib]RKK(Ac)K(X16)-NH2) | 90 | 
CCCCCCCCCCCCCCCCCC(=O)N[C@@H](CCC(=O)N[C@@H](CCC(=O)N[C@@H](CCC(=O)NCCCOCCOCCOCCCNC(=O)COCC(=O)NCCCOCCOCCOCCCNC(=O)COCC(=O)NCCCOCCOCCOCCCNC(=O)COCC(=O)NCCCC[C@H](NC(=O)[C@H](CCCCNC(C)=O)NC(=O)[C@H](CCCCN)NC(=O)[C@H](CCCNC(=N)N)NC(=O)C(C)(C)NC(=O)[C@H](CO)NC(=O)[C@H](Cc1c[nH]c2ccccc12)NC(=O)[C@@H](NC(=O)[C@H](CO)NC(=O)[C@H](CCCC)NC(=O)CNC(=O)[C@H](CCC(=O)O)NC(=O)C(C)(C)NC(=O)C(C)(C)NC(=O)[C@@H](NC(=O)[C@H](CCCCNC(C)=O)NC(=O)[C@H](C)NC(=O)[C@H](CCCNC(=N)N)NC(=O)[C@@H](NC(=O)[C@H](CCCCN)NC(=O)[C@H](CCC(=O)O)NC(=O)[C@H](CCCNC(=N)N)NC(=O)CNC(=O)[C@H](CCC(=O)O)NC(=O)[C@H](CC(C)C)NC(C)=O)C(C)C)[C@@H](C)CC)[C@@H](C)O)C(N)=O)C(=O)O)C(=O)O)C(=O)O [compound 96] (Ac-LEGREKVRAK(Ac)I[Aib][Aib]EG[Nle]STWS[Aib]RKK(Ac)K(X15)-NH2) | 89 | 
CCCCCCCCCCCCCCCCCC(=O)N[C@@H](CCC(=O)N[C@@H](CCC(=O)N[C@@H](CCC(=O)NCCOCCOCCOCCOCCOCCOCCOCCOCCOCCOCCOCCOCCC(=O)NCCCC[C@H](NC(=O)[C@H](CCCCN)NC(=O)[C@H](CCCCN)NC(=O)[C@H](CCCNC(=N)N)NC(=O)C(C)(C)NC(=O)[C@H](CO)NC(=O)[C@H](Cc1c[nH]c2ccccc12)NC(=O)[C@@H](NC(=O)[C@H](CO)NC(=O)[C@H](CCCC)NC(=O)CNC(=O)[C@H](CCC(=O)O)NC(=O)C(C)(C)NC(=O)C(C)(C)NC(=O)[C@@H](NC(=O)[C@H](CCC(N)=O)NC(=O)[C@H](C)NC(=O)[C@H](CCCNC(=N)N)NC(=O)[C@@H](NC(=O)[C@H](CCCCN)NC(=O)[C@H](CCC(=O)O)NC(=O)[C@H](CCCNC(=N)N)NC(=O)CNC(=O)[C@H](CCC(=O)O)NC(=O)[C@H](CC(C)C)NC(C)=O)C(C)C)[C@@H](C)CC)[C@@H](C)O)C(N)=O)C(=O)O)C(=O)O)C(=O)O [compound 97] (Ac-LEGREKVRAQI[Aib][Aib]EG[Nle]STWS[Aib]RKKK([PEG12-γGlu-γGlu-γGlu-Stearoyl])-NH2) | 98 | 

The next lines start with the values.

Emax [%] | EC50 [nM] | Structure (SMILES)
99 |  | CCCCCCCCCCCCCCCCCC(=O)NCCOCCOCC(=O)N[C@@H](CCC(=O)N[C@@H](CCC(=O)N[C@@H](CCC(=O)NCCOCCOCC(=O)NCCOCCOCC(=O)NCCCC[C@H](NC(=O)[C@H](CCCCN)NC(=O)[C@H](CCCCN)NC(=O)[C@H](CCCNC(=N)N)NC(=O)C(C)(C)NC(=O)[C@H](CO)NC(=O)[C@H](Cc1c[nH]c2ccccc12)NC(=O)[C@@H](NC(=O)[C@H](CO)NC(=O)[C@H](CCCC)NC(=O)CNC(=O)[C@H](CCC(=O)O)NC(=O)C(C)(C)NC(=O)C(C)(C)NC(=O)[C@@H](NC(=O)[C@H](CCC(N)=O)NC(=O)[C@H](C)NC(=O)[C@H](CCCNC(=N)N)NC(=O)[C@@H](NC(=O)[C@H](CCCCN)NC(=O)[C@H](CCC(=O)O)NC(=O)[C@H](CCCNC(=N)N)NC(=O)CNC(=O)[C@H](CCC(=O)O)NC(=O)[C@H](CC(C)C)NC(C)=O)C(C)C)[C@@H](C)CC)[C@@H](C)O)C(N)=O)C(=O)O)C(=O)O)C(=O)O [compound 98] (Ac-LEGREKVRAQI[Aib][Aib]EG[Nle]STWS[Aib]RKKK([AEEA-AEEA-γGlu-γGlu-γGlu-AEEA-Stearoyl])-NH2)
87 | 0.01 | CCCCCCCCCCCCCCCCCC(=O)N[C@@H](CCC(=O)NCCOCCOCC(=O)N[C@@H](CCC(=O)N[C@@H](CCC(=O)NCCOCCOCC(=O)NCCOCCOCC(=O)NCCCC[C@H](NC(=O)[C@H](CCCCN)NC(=O)[C@H](CCCCN)NC(=O)[C@H](CCCNC(=N)N)NC(=O)C(C)(C)NC(=O)[C@H](CO)NC(=O)[C@H](Cc1c[nH]c2ccccc12)NC(=O)[C@@H](NC(=O)[C@H](CO)NC(=O)[C@H](CCCC)NC(=O)CNC(=O)[C@H](CCC(=O)O)NC(=O)C(C)(C)NC(=O)C(C)(C)NC(=O)[C@@H](NC(=O)[C@H](CCC(N)=O)NC(=O)[C@H](C)NC(=O)[C@H](CCCNC(=N)N)NC(=O)[C@@H](NC(=O)[C@H](CCCCN)NC(=O)[C@H](CCC(=O)O)NC(=O)[C@H](CCCNC(=N)N)NC(=O)CNC(=O)[C@H](CCC(=O)O)NC(=O)[C@H](CC(C)C)NC(C)=O)C(C)C)[C@@H](C)CC)[C@@H](C)O)C(N)=O)C(=O)O)C(=O)O)C(=O)O [compound 99] (Ac-LEGREKVRAQI[Aib][Aib]EG[Nle]STWS[Aib]RKKK([AEEA-AEEA-γGlu-γGlu-AEEA-γGlu-Stearoyl])-NH2)
79 | 0.09 | CCCCCCCCCCCCCCCCCC(=O)N[C@@H](CCC(=O)NCCOCCOCC(=O)N[C@@H](CCC(=O)N[C@@H](CCC(=O)N[C@@H](CCC(=O)NCCOCCOCC(=O)NCCOCCOCC(=O)NCCCC[C@H](NC(=O)[C@H](CCCCN)NC(=O)[C@H](CCCCN)NC(=O)[C@H](CCCNC(=N)N)NC(=O)C(C)(C)NC(=O)[C@H](CO)NC(=O)[C@H](Cc1cccc2ccccc12)NC(=O)[C@@H](NC(=O)[C@H](CO)NC(=O)[C@H](CCCC)NC(=O)CNC(=O)[C@H](CCC(=O)O)NC(=O)C(C)(C)NC(=O)C(C)(C)NC(=O)[C@@H](NC(=O)[C@H](CCCCNC(C)=O)NC(=O)[C@H](C)NC(=O)[C@H](CCCNC(=N)N)NC(=O)[C@@H](NC(=O)[C@H](CCCCN)NC(=O)[C@H](CCC(=O)O)NC(=O)[C@H](CCCNC(=N)N)NC(=O)CNC(=O)[C@H](CCC(=O)O)NC(=O)[C@H](CC(C)C)NC(C)=O)C(C)C)[C@@H](C)CC)[C@@H](C)O)C(N)=O)C(=O)O)C(=O)O)C(=O)O)C(=O)O [compound 103] (Ac-LEGREKVRAK(Ac)I[Aib][Aib]EG[Nle]ST[1Nal]S[Aib]RKKK([AEEA-AEEA-γGlu-γGlu-γGlu-AEEA-γGlu-Stearoyl])-NH2)
89 | 0.16 | CCCCCCCCCCCCCCCCCC(=O)N[C@@H](CCC(=O)NCCOCCOCC(=O)NCCOCCOCC(=O)N[C@@H](CCC(=O)N[C@@H](CCC(=O)NCCCC[C@H](NC(=O)[C@H](CCCCN)NC(=O)[C@H](CCCNC(=N)N)NC(=O)C(C)(C)NC(=O)[C@H](CO)NC(=O)[C@H](Cc1c[nH]c2ccccc12)NC(=O)[C@@H](NC(=O)[C@H](CO)NC(=O)[C@H](CCCC)NC(=O)CNC(=O)[C@H](CCC(=O)O)NC(=O)C(C)(C)NC(=O)C(C)(C)NC(=O)[C@@H](NC(=O)[C@H](CCC(N)=O)NC(=O)[C@H](C)NC(=O)[C@H](CCCNC(=N)N)NC(=O)[C@@H](NC(=O)[C@H](CCCCN)NC(=O)[C@H](CCC(=O)O)NC(=O)[C@H](CCCNC(=N)N)NC(=O)CNC(=O)[C@H](CCC(=O)O)NC(=O)[C@H](CC(C)C)NC(C)=O)C(C)C)[C@@H](C)CC)[C@@H](C)O)C(N)=O)C(=O)O)C(=O)O)C(=O)O [compound 104] (Ac-LEGREKVRAQI[Aib][Aib]EG[Nle]STWS[Aib]RKK([γGlu-γGlu-AEEA-AEEA-γGlu-Stearoyl])-NH2)
88 | 0.03 | CCCCCCCCCCCCCCCCCC(=O)N[C@@H](CCC(=O)NCCOCCOCC(=O)NCCOCCOCC(=O)N[C@@H](CCC(=O)N[C@@H](CCC(=O)NCCCC[C@H](NC(=O)[C@H](CCCCN)NC(=O)[C@H](CCCCN)NC(=O)[C@H](CCCNC(=N)N)NC(=O)C(C)(C)NC(=O)[C@H](CO)NC(=O)[C@H](Cc1c[nH]c2ccccc12)NC(=O)[C@@H](NC(=O)[C@H](CO)NC(=O)[C@H](CCCC)NC(=O)CNC(=O)[C@H](CCC(=O)O)NC(=O)C(C)(C)NC(=O)C(C)(C)NC(=O)[C@@H](NC(=O)[C@H](CCC(N)=O)NC(=O)[C@H](C)NC(=O)[C@H](CCCNC(=N)N)NC(=O)[C@@H](NC(=O)[C@H](CCCCN)NC(=O)[C@H](CCC(=O)O)NC(=O)[C@H](CCCNC(=N)N)NC(=O)CNC(=O)[C@H](CCC(=O)O)NC(=O)[C@H](CC(C)C)NC(C)=O)C(C)C)[C@@H](C)CC)[C@@H](C)O)C(N)=O)C(=O)O)C(=O)O)C(=O)O [compound 105] (Ac-LEGREKVRAQI[Aib][Aib]EG[Nle]STWS[Aib]RKKK([γGlu-γGlu-AEEA-AEEA-γGlu-Stearoyl])-NH2)
